What all share (type): cell-based, Channel catfish virus (CCV, Ictalurid herpesvirus 1)
Experiment [1] relates to CCV (strain VR-665) in CCO cells. Briefly: Antiviral activity screening assay, CCV gene expression by RT-qPCR. Conditions: maximum safe concentration, added 1 h after CCV infection, 36 h. The method, then:
To test the anti-CCV effect of tested compounds in the preliminary screening, CCO cells were seeded in 24-well plates and cultured to reach approximately 90% confluence in each well at 28°C. Subsequently, the cells were infected with the CCV at 10^3 TCID50/ml at 28°C for 1 h. After that, the cell culture medium was replaced using an isopycnic DMEM medium containing the maximum safe concentration of indicated compounds. CCV-infected cells treated with DMSO served as a negative control, whereas CCV-infected cells treated with acyclovir (2.5 μg/mL) served as a positive control ([33]). […] According to the percentage inhibition results, we further detected the antiviral activity of kaempferol at maximum safe concentration by viral cytopathic effects (CPE) and western blot analysis.
For RT-qPCR, the total RNA was isolated from CCV-infected cells using RnaExTM (Trizol)^a reagent (GENERAY, China), and reversed transcribed applying a HiScript III RT SuperMix with gDNA wiper (Vazyme, China) following the manufacturer’s instructions. Quantitative PCR was performed with a LightCycler 96 Real-Time PCR Detection System (Roche, USA) using ChamQ Universal SYBR qPCR Master Mix (Vazyme, China) with the following cycle conditions: 95°C for 30 s, followed by 40 cycles of 95°C for 10 s and 60°C for 30 s. […] Fold changes of the selected gene vs 18 s (internal reference) were calculated by the 2^−△△Ct method. […]
For orientation: In qPCR the cycle at which signal appears reflects the starting amount.

Experiment [2] shares this test system. Briefly: Anti-CCV replication assay of kaempferol, RT-qPCR. The method, then: The CCO cells were infected with the CCV at 10^3 TCID50/ml at 28°C for 1 h. Then, the cell culture medium was replaced using isopycnic DMEM medium containing various concentrations kaempferol (2.5, 5, 7.5, 10, 12.5, and 15 μg/mL). The cells without exposure to kaempferol and CCV were set as the mock control. CCV-infected cells served as a negative control. 24 and 36 h post-infection, the cells were collected and subjected to the RT-qPCR and western blot analysis for the viral gene and protein expression. Meanwhile, the cells were treated as described above for the determination of virus titer. […]
For RT-qPCR, the total RNA was isolated from CCV-infected cells using RnaExTM (Trizol)^a reagent (GENERAY, China), and reversed transcribed applying a HiScript III RT SuperMix with gDNA wiper (Vazyme, China) following the manufacturer’s instructions. Quantitative PCR was performed with a LightCycler 96 Real-Time PCR Detection System (Roche, USA) using ChamQ Universal SYBR qPCR Master Mix (Vazyme, China) with the following cycle conditions: 95°C for 30 s, followed by 40 cycles of 95°C for 10 s and 60°C for 30 s. […] Fold changes of the selected gene vs 18 s (internal reference) were calculated by the 2^−△△Ct method.
Figure 3 The anti-CCV activity by different concentration of kaempferol in vitro. […] The p value was determined by *p < 0.05, **p < 0.01.

Experiment [3] relates to CCV in CCO cells. Briefly: Virus titration assay (TCID50) after kaempferol treatment. Conditions: increasing concentration 2.5-15 μg/mL, 24 and 36 h post CCV infection. On the procedure:
The CCO cells were infected with the CCV at 10^3 TCID50/ml at 28°C for 1 h. Then, the cell culture medium was replaced using isopycnic DMEM medium containing various concentrations kaempferol (2.5, 5, 7.5, 10, 12.5, and 15 μg/mL). The cells without exposure to kaempferol and CCV were set as the mock control. CCV-infected cells served as a negative control. 24 and 36 h post-infection, the cells were collected and subjected to the RT-qPCR and western blot analysis for the viral gene and protein expression. Meanwhile, the cells were treated as described above for the determination of virus titer. The supernatant and cell pellets were collected at 24 and 36 h post-infection and the TCID50 was used to evaluate the viral loads of intracellular and extracellular.
Measurement of viral titer was described previously ([5]). […]
Figure 3 The anti-CCV activity by different concentration of kaempferol in vitro. […] The relative expression levels of the CCV ORF 39 and ORF 59 genes were evaluated by RT-qPCR at 24 h (A) and 36 h (B) post-infection. […] The cells were collected at 24 h (E) and 36 h (F) after infection and CCV ORF 39 and ORF59 proteins and cellular GADPH were analyzed by western blot. (G) The intracellular and released CCV virions separated from cell lysates and supernatants at 24 h and 36 h post infection were analyzed by viral titer. […] The p value was determined by *p < 0.05, **p < 0.01.

Turning to `O=c1c(O)c(-c2ccc(O)cc2)oc2cc(O)cc(O)c12` [Kaempferol], in experiment [1], the “inhibitory rate of CCV ORF 39 and 59 genes” value is listed as 99.9%. Also, the “inhibitory effect of CCV-ORF 39 and CCV-ORF 59” value in experiment [2] (24 h post viral infection, kaempferol 2.5-15 μg/mL, RT-qPCR) was “over 85%”. Further, the “viral mRNA levels compared with the control group” value in experiment [2] (36 h post viral infection, kaempferol 10 μg/mL to 15 μg/mL) is “significantly lower”. Further, the “intracellular and progeny viral loads (viral titer)” value in experiment [3] is reported as “dramatically reduced”.

For the origin of these results see paper PMC10725991, “Kaempferol is a novel antiviral agent against channel catfish virus infection through blocking viral attachment and penetration in vitro” (Frontiers in Veterinary Science, 2023).
